Drawing on patent US8680132B2, “Spiro-oxindole MDM2 antagonists” (priority 2010, dated 2014), this text covers IC50 for 14 compounds.

In test [1] the target is recombinant human His-tagged MDM2 protein (residues 1-118) (Homo sapiens (Human), UniProt Q00987). As to the kind of experiment: Fluorescence-polarization MDM2 binding assay (Example 2). The conditions noted are these: Table 2A; no unit in the cell (μM unless otherwise indicated).
For another test, the system named is SJSA-1 (p53 wild-type). As to the kind of experiment: Cell growth assay (WST-8). It is filed as cell-based. A general note: Tetrazolium assays rely on reduction of a dye to a coloured formazan, in cell work by metabolically active cells.
The next test relates to LNCAP (p53 wild-type). As to the kind of experiment: Cell growth assay (WST-8). It is filed as cell-based, human.
The subject of the next test is PC-3 (deleted p53). As to the kind of experiment: Cell growth assay (WST-8). It is filed as cell-based. The conditions noted are these: read-out: IC50 PC-3 (deleted p53).
The next test has as its system HCT-116 (p53 wild-type). Put plainly: Cell growth assay (WST-8). It counts as cell-based, human.
The test system of another test is HCT-116 (p53—/—). As to the kind of experiment: Cell growth assay (WST-8). It counts as cell-based.
For test [2], the system named is prostate cancer cell line 22Rv1. Put plainly: Growth inhibition assay (Celltiter-Glo), 22Rv1. The settings on record: Homo sapiens, 22Rv1, 96 h, read-out: IC50 growth inhibition. It is filed as cell-based. For orientation: ATP-based viability assays read luminescence as a measure of living cells.
The subject of the next test is RS4; 11 (p53 wt). Put plainly: cells. The conditions noted are these: Homo sapiens, RS4-11, 96 h, read-out: RS4, 11 (p53 wt) IC50 (μM).
Where [3] appears, read: Homo sapiens, SJSA-1; read-out: IC50 SJSA-1 (p53 wild-type).
Where [4] appears, read: Homo sapiens, LNCaP; read-out: IC50 LNCAP (p53 wild-type).
[5] abbreviates: Homo sapiens, SJSA-1, read-out: IC50 SJSA-1 (p53 wild-type).
Where [6] appears, read: Homo sapiens, HCT-116, read-out: IC50 HCT-116 (p53 wild-type).
[7] abbreviates: Homo sapiens, LNCaP, read-out: IC50 LNCAP (p53 wild-type).
Setting [8] is: Homo sapiens, HCT-116, read-out: IC50 HCT-116 (p53—/—).
[9] abbreviates: Homo sapiens, SJSA-1, 96 h, read-out: IC50 SJSA-1 (p53 wild-type).
The mark [10] stands for this setting: Homo sapiens, HCT-116, 96 h, read-out: IC50 HCT-116 (p53 wild-type).
The mark [11] stands for this setting: Homo sapiens, LNCaP, 96 h, read-out: IC50 LNCAP (p53 wild-type).
The mark [12] stands for this setting: Homo sapiens, HCT-116, 96 h, read-out: IC50 HCT-116 (p53—/—).

Structures are written as SMILES. Several values for one entry are separate records, joined by “and”; a condition that tells them apart may be missing. Identical values can stand only once. Counter-ions that a name gives are not always drawn. Like-named read-outs stand apart in the source and are kept apart here. Some results are limits rather than exact numbers.

Chain of recombinant human His-tagged MDM2 protein (residues 1-118) (Q00987 1-118): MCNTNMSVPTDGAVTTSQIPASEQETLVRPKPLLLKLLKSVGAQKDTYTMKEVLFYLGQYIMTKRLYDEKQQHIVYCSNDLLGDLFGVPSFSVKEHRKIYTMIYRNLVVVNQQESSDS

Regarding `CC(C)(C)C[C@@H]1N[C@@H](C(=O)N[C@H]2C[C@@](C)(O)C2)[C@H](c2cccc(Cl)c2F)[C@]12C(=O)Nc1c2ccc(Cl)c1F`, the IC50 in test [1] was < 0.1 µM; with SJSA-1 (p53 wild-type) (setting [3]), 0.2 µM; in the test on LNCAP (p53 wild-type) (setting [4]) it was 0.3 µM; in the test with PC-3 (deleted p53) it was 10.1 µM.
With `CC(C)(C)C[C@@H]1N[C@@H](C(=O)NC2CCC(C)(O)CC2)[C@H](c2cccc(Cl)c2F)[C@]12C(=O)Nc1cc(Cl)ccc12` (stereo partly shown), the IC50 was determined as 0.1 µM with SJSA-1 (p53 wild-type) (setting [5]); 0.1 µM with HCT-116 (p53 wild-type) (setting [6]); 0.2 µM with LNCAP (p53 wild-type) (setting [7]); 10.6 µM in the test on HCT-116 (p53—/—) (setting [8]); 11.1 µM with PC-3 (deleted p53).
Regarding `O=C(NC1CCC(O)CC1)[C@@H]1N[C@@H](c2ccccc2)[C@@]2(C(=O)Nc3cc(Cl)ccc32)[C@H]1Cc1ccccc1` (single isomer, unassigned) [CB083-Isomer B], the IC50 in test [1] is > 5 µM.
With `CC(C)(C)C[C@@H]1N[C@@H](C(=O)NC2CCC(O)CC2)[C@H](Cc2ccccc2)[C@]12C(=O)Nc1cc(Cl)ccc12` (single isomer, unassigned) [CB084-Isomer B], in test [1], the IC50 was > 5 µM.
Still for that read-out and setting: the value for `O=C(NC1CCC(O)CC1)[C@@H]1N[C@@H](c2ccccc2)[C@@]2(C(=O)Nc3cc(Cl)ccc32)[C@H]1c1cccc(Cl)c1F` (single isomer, unassigned) [CB087-Isomer B] was < 0.5 µM.
With `CC(C)(C)C[C@H]1N[C@@H](C(=O)N[C@H]2C[C@@](C)(O)C2)[C@H](c2cccc(Cl)c2)[C@@]12C(=O)Nc1cc(F)c(F)cc12` [C035], the IC50 in test [1] was < 3 µM; in the test on SJSA-1 (p53 wild-type) (setting [3]), < 5 µM; in the test with HCT-116 (p53 wild-type) (Homo sapiens, HCT-116; read-out: IC50 HCT-116 (p53 wild-type)), < 5 µM; with LNCAP (p53 wild-type) (setting [4]) it was < 5 µM; in the test on HCT-116 (p53—/—) (Homo sapiens, HCT-116; read-out: IC50 HCT-116 (p53—/—)), > 10 µM; in the test with PC-3 (deleted p53) it was > 10 µM.
For the compound `CC(C)(C)C[C@@H]1N[C@@H](C(=O)N[C@H]2C[C@@](C)(O)C2)[C@H](c2cc(Cl)ccc2F)[C@]12C(=O)Nc1cc(Cl)ccc12` [C11701], the IC50 in the test with HCT-116 (p53 wild-type) (setting [6]) was determined as 1.4 µM; in the test with LNCAP (p53 wild-type) (setting [7]) it was 1.5 µM; in the test with HCT-116 (p53—/—) (setting [8]), 21.8 µM; with PC-3 (deleted p53) it was 19.6 µM.
In the case of `CCN1[C@@H](CC(C)(C)C)[C@@]2(C(=O)Nc3cc(Cl)ccc32)[C@@H](c2cccc(Cl)c2F)[C@@H]1C(=O)N[C@H]1C[C@@](C)(O)C1` [C29701], in test [1], the IC50 was < 0.1 µM.
On the same count and under the same terms, the value for `CN1[C@@H](CC(C)(C)C)[C@@]2(C(=O)Nc3cc(Cl)ccc32)[C@@H](c2cccc(Cl)c2F)[C@@H]1C(=O)N[C@H]1C[C@@](C)(O)C1` [C30201] was < 0.1 µM.
On to `CC(C)(C)C[C@H]1N[C@@H](C(=O)N[C@H]2C[C@@](C)(O)C2)[C@H](c2cccc(Cl)c2F)[C@@]12C(=O)Nc1cc(Cl)ccc12` [MI-519-64], for which the IC50 was determined as 0.27 µM in the test on SJSA-1 (p53 wild-type) (setting [9]); 0.18 µM with HCT-116 (p53 wild-type) (setting [10]); 0.5 µM in the test with LNCAP (p53 wild-type) (setting [11]); 13.7 µM with HCT-116 (p53—/—) (setting [12]); 6.1 µM in the test on PC-3 (deleted p53) (96 h).
In the case of `CC(C)(C)C[C@H]1N[C@@H](C(=O)N[C@H]2C[C@](C)(O)C2)[C@H](c2cccc(Cl)c2F)[C@@]12C(=O)Nc1cc(Cl)ccc12` [MI-519-65], the IC50 with SJSA-1 (p53 wild-type) (setting [5]), in the test with HCT-116 (p53 wild-type) (setting [6]) and in the test on LNCAP (p53 wild-type) (setting [7]) was < 3 µM each time.
Regarding `CC(C)(C)C[C@@H]1N[C@@H](C(=O)N[C@H]2C[C@@](C)(O)C2)[C@H](c2cccc(Cl)c2F)[C@]12C(=O)Nc1cc(Cl)ccc12` [MI-519-6401], the IC50 in the test on SJSA-1 (p53 wild-type) (setting [9]) is 0.4 µM; with HCT-116 (p53 wild-type) (setting [10]), 0.102 µM; with LNCAP (p53 wild-type) (setting [11]), 0.33 µM; with HCT-116 (p53—/—) (setting [12]), 12.2 µM; in the test with PC-3 (deleted p53) (96 h) it was 10.5 µM; in test [2], 0.1 to 0.5 µM. The IC50 in the test on RS4; 11 (p53 wt) amounted to 0.13 ± 0.02 µM.
Turning to `CC(C)(C)C[C@H]1N[C@@H](C(=O)NC2CCC(O)CC2)[C@H](c2cccc(Cl)c2F)[C@@]12C(=O)Nc1cc(Cl)ccc12` (stereo partly shown) [MI-773], the IC50 amounted to 0.061 µM with SJSA-1 (p53 wild-type) (setting [5]); 0.058 µM in the test with HCT-116 (p53 wild-type) (setting [6]); 0.085 µM in the test on LNCAP (p53 wild-type) (setting [7]); 14.7 µM in the test with PC-3 (deleted p53); 0.13 µM in the test with RS4; 11 (p53 wt) (Four day treatment).
Consider `CC(C)(C)C[C@@H]1N[C@@H](C(=O)NC2CCC(O)CC2)[C@H](c2cccc(Cl)c2F)[C@]12C(=O)Nc1cc(Cl)ccc12` (stereo partly shown) [MI-77301 (TFA salt)], for which the IC50 was 0.083 µM and 0.075 µM in the test with SJSA-1 (p53 wild-type) (read-out: IC50 SJSA-1 (p53 wild-type); Four day treatment); 0.048 ± 0.014 µM in the test on HCT-116 (p53 wild-type) (read-out: IC50 HCT-116 (p53 wild-type); Four day treatment); 0.086 ± 0.016 µM in the test with LNCAP (p53 wild-type) (read-out: IC50 LNCAP (p53 wild-type); Four day treatment); 13 ± 3 µM with PC-3 (deleted p53) (Four day treatment); 0.059 ± 0.025 µM with RS4; 11 (p53 wt) (Four day treatment).
